The values that follow are results of earlier work, collected in patent US8497291B2 (Cyclacel Limited, priority 2005, dated 2013).

Like-named read-outs stand apart in the source and are kept apart here.

One series concerns colon cancer. The following applies: model of colon cancer.
The conditions of series [1]: phase I, patients with a variety of cancers.
Series [2] deals with variety of cell lines, xenograft and metastatic cancer model.

`CCCCCCCCCCCCCCCC(=O)Nc1ccn([C@@H]2O[C@H](CO)[C@@H](O)[C@@H]2C#N)c(=O)n1` [CYC682, 2′-cyano-2′-deoxy-N^4-palmitoyl-1-β-D-arabinofuranosylcytosine]: in the series on colon cancer, the anticancer activity entry was “strong anticancer activity”, the “increasing survival compared with gemcitabine or 5-FU” value was “superior” and the “preventing the spread of colon cancer metastases to the liver compared with gemcitabine or 5-FU” value was “superior”. Besides, in series [1], the dose limiting toxicity entry is reported as “myelosuppression” and the tolerability in humans entry is on record as “well tolerated”. Further, in series [2] (as demonstrated in EP 536936), the anti-tumour activity entry was “excellent anti-tumour activity”. In series [2] (variety of cell lines, xenograft and metastatic cancer model), the anti-tumour activity entry is listed as “potent anti-tumour activity”.
